This note sets out measurements from patent publication US20230373985A1 (Origenis Gmbh, priority 2020, published 2023).

Assay [1] addresses T1, wt human TYK2, catalytic site (Homo sapiens, UniProt P29597).
T1 construct: wt human TYK2, catalytic site; purchased SignalChem
T1 sequence (P29597 897-1176 limits assumed): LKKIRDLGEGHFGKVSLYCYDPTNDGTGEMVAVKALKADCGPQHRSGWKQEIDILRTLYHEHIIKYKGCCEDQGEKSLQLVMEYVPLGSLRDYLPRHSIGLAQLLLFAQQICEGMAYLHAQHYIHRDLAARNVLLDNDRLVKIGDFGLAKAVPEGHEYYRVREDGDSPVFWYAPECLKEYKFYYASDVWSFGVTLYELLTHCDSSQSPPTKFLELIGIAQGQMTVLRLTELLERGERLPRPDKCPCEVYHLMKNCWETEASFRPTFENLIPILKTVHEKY
In words: HTRF KinEASE assay, TYK2. It is filed as biochemical. The note with it: 1 μM ATP; read-out: IC50, Activity Toward TYK2. The procedure, abridged: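 HTRF KinEASE-TK readout with 1 μM biotinylated TK substrate in 1× kinase buffer, ≥30 min at room temperature, then antibody/streptavidin-XL665 detection for 60 min. TYK2 at 2 nM with 1 μM ATP; JAK2 at 1 nM with 100 μM ATP. Analysis uses emission ratios.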
(In TR-FRET formats the signal depends on donor and acceptor labels being close together.)

The target of assay [2] is T2, wt human LRRK2, catalytic site (Homo sapiens, UniProt Q5S007).
T2 construct: 5 nM wt human LRRK2, catalytic site; purchased ThermoFisher
In words: TR-FRET LanthaScreen Eu Kinase Binding Assay, LRRK2 wt. The settings on record: one range stated for wt and G2019, read-out: IC50, Activity Toward LRRK2(Wt). Here is the method: (§1) The basic protocol for TR-FRET LanthaScreen Eu Kinase Binding Assay inhibitor studies were performed as follows. LanthaScreen Kinase Binding Assays (ThermoFisher/USA) to evaluate inhibitors were performed by addition of 5 μL of test compound in corresponding DMSO dilutions/5 μl of kinase/antibody mixture, 5 μL of tracer into 384 well small volume plates. After incubation for 1 hour at room temperature, plates were read. Data analysis of emission ratios was according LanthaScreen Eu Kinase Binding Assay protocol.
(§2) Kinase and assay components were adjusted to final concentrations according to kit protocol. For LRRK2: 5 nM wt human LRRK2, catalytic site, or G2019S human LRRK2, catalytic site (ThermoFisher/USA), 2 nM Eu-Anti-GST Antibody, 10 nM Kinase Tracer 236 in 1× Kinase Buffer A. For NUAK1: 8 nM wt human NUAK1, full length (ThermoFisher/USA), 2 nM Eu-Anti-His Antibody, 5 nM Kinase Tracer 236 in 1× Kinase Buffer A.

Assay [3] concerns the target T3, G2019S human LRRK2, catalytic site (Homo sapiens, UniProt Q5S007, G2019S).
T3 construct: G2019S human LRRK2, catalytic site; purchased ThermoFisher
In words: TR-FRET LanthaScreen Eu Kinase Binding Assay, LRRK2 G2019S. The settings on record: LRRK2(G2019); one range stated for wt and G2019; read-out: IC50, Activity Toward LRRK2(G2019). Here is the method:
as §1, §2

In assay [4] the target is T4, wt human JAK1, catalytic site (Homo sapiens, UniProt P23458).
T4 construct: wt human JAK1, catalytic site; purchased ThermoFisher
In words: HTRF KinEASE assay, JAK1. The note with it: 2.5 μM ATP; read-out: IC50, Activity Toward JAK1. Type of assay: biochemical. Summed up: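 Two-step HTRF KinEASE assay: compound, kinase/biotinylated TK substrate and ATP were incubated at least 30 min at room temperature. Antibody plus streptavidin-XL665 was then added and plates were read after 60 min. Inhibition was derived from emission ratios according to the kit protocol.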

Where only a bound is given, the exact number is not on record here.

T2 sequence (Q5S007 970-2527 limits assumed): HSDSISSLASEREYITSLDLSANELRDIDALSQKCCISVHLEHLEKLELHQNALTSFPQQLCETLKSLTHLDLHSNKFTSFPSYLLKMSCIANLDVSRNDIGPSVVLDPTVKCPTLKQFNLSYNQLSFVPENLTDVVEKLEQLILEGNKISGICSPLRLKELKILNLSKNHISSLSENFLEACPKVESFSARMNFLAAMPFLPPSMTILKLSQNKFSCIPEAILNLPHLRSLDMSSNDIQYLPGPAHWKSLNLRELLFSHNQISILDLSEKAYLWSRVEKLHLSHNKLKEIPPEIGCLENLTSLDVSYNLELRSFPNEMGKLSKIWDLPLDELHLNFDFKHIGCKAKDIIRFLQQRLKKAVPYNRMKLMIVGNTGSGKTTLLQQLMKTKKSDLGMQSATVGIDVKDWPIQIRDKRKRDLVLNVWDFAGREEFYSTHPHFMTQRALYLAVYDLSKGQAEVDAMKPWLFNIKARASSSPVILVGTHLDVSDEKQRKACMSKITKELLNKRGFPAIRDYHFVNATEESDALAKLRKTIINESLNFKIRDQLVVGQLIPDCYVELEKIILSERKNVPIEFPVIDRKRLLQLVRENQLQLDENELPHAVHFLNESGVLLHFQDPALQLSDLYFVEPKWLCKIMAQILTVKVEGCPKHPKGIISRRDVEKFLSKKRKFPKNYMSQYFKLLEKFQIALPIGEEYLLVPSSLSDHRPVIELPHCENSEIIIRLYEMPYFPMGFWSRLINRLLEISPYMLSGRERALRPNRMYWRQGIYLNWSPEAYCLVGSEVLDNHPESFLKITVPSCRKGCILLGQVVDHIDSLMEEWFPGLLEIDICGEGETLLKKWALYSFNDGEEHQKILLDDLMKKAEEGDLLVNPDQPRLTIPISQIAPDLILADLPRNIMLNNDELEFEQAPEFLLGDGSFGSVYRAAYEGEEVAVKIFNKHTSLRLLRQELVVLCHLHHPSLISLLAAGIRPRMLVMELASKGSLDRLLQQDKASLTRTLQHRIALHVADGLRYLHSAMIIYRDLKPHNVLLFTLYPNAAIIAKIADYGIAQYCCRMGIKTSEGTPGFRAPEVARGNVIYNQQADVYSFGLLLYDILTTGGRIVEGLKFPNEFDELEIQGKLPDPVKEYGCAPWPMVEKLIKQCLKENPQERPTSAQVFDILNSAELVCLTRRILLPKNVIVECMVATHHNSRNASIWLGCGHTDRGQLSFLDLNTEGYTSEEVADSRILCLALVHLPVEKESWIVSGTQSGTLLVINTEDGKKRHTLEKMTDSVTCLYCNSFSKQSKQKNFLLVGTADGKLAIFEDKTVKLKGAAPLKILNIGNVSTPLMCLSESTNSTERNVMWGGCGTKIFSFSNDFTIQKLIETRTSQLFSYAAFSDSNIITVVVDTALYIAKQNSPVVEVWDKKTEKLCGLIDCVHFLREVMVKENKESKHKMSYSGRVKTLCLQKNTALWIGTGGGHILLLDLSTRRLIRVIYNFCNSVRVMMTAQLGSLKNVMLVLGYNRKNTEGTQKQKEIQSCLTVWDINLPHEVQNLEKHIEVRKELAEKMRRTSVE
T3 sequence (Q5S007 970-2527 G2019S limits assumed): as the sequence (Q5S007 970-2527 limits assumed) above, with G1050S counted along it
T4 sequence (P23458 875-1153 limits assumed): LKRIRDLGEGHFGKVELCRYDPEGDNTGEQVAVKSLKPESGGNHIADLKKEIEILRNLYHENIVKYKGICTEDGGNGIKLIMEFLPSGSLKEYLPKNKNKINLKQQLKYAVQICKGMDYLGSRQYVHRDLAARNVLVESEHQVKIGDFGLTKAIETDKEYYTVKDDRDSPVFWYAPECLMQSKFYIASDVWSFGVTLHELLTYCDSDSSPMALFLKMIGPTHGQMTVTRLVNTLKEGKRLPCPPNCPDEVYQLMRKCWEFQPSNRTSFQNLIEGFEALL

With `CC(C)(C)C(=O)c1ccc(Nc2cn(-c3c(F)cccc3Cl)nc2C(N)=O)cc1` [compound 42, 1-(2-chloro-6-fluorophenyl)-4-((4-pivaloylphenyl)amino)-1H-pyrazole-3-carboxamide], the IC50 (commonly the concentration that inhibits the measured activity by half) in assay [1] was under 0.01 µM; in assay [2], 0.1 to 1 µM; in assay [3], 0.1 to 1 µM; in assay [4], under 0.01 µM.
For the compound `Cc1ccnnc1-c1ccc(Nc2cn(-c3c(Cl)cccc3Cl)nc2C(N)=O)cc1` [compound 45, 1-(2,6-dichlorophenyl)-4-((4-(4-methylpyridazin-3-yl)phenyl)amino)-1H-pyrazole-3-carboxamide], the IC50 in assay [1] is under 0.01 µM; in assay [2], 0.01 to 0.1 µM; in assay [3], 0.01 to 0.1 µM; in assay [4], 0.1 to 1 µM.
On to `NC(=O)c1nn(-c2c(Cl)cccc2Cl)cc1Nc1ccc(C(=O)N2CC3(CCC3)C2)cc1` [compound 46, 4-((4-(2-azaspiro[3.3]heptane-2-carbonyl)phenyl)amino)-1-(2,6-dichlorophenyl)-1H-pyrazole-3-carboxamide], for which the 50% inhibitory concentration (IC50) in assay [1] is under 0.01 µM; in assay [2] it was 0.1 to 1 µM; in assay [3], 0.1 to 1 µM; in assay [4] it was under 0.01 µM.
As to `CCn1ncnc1-c1ccc(Nc2cn(-c3c(Cl)cccc3Cl)nc2C(N)=O)cc1` [compound 47, 1-(2,6-dichlorophenyl)-4-((4-(1-ethyl-1H-1,2,4-triazol-5-yl)phenyl)amino)-1H-pyrazole-3-carboxamide], the IC50 in assay [1] lay in the range of 0.01 to 0.1 µM; in assay [2] it was 0.1 to 1 µM; in assay [3], 0.1 to 1 µM; in assay [4], 0.1 to 1 µM.
As to `NC(=O)c1nn(-c2c(Cl)cccc2Cl)cc1Nc1ccc(-c2cccnn2)cc1` [compound 49, 1-(2,6-dichlorophenyl)-4-((4-(pyridazin-3-yl)phenyl)amino)-1H-pyrazole-3-carboxamide], the 50% inhibitory concentration (IC50) in assay [1] lay within 0.01 to 0.1 µM; in assay [2], 0.1 to 1 µM; in assay [3], 0.1 to 1 µM; in assay [4], 0.01 to 0.1 µM.
On to `CN1CCC(N(C)C(=O)c2ccc(Nc3cn(-c4c(Cl)cccc4Cl)nc3C(N)=O)cc2)CC1` [compound 50, 1-(2,6-dichlorophenyl)-4-((4-(methyl(1-methylpiperidin-4-yl)carbamoyl)phenyl)amino)-1H-pyrazole-3-carboxamide], for which the IC50 in assay [1] was 0.01 to 0.1 µM; in assay [2] it was 0.1 to 1 µM; in assay [3], 0.1 to 1 µM; in assay [4] it was 0.1 to 1 µM.
Regarding `Cc1cncnc1-c1ccc(Nc2cn(-c3c(Cl)cccc3Cl)nc2C(N)=O)cc1` [compound 51, 1-(2,6-dichlorophenyl)-4-((4-(5-methylpyrimidin-4-yl)phenyl)amino)-1H-pyrazole-3-carboxamide], the IC50 was 0.01 to 0.1 µM in assay [1], 0.1 to 1 µM in assay [2], 0.1 to 1 µM in assay [3] and 0.01 to 0.1 µM in assay [4].
For `CCc1cncnc1-c1ccc(Nc2cn(-c3c(Cl)cccc3Cl)nc2C(N)=O)cc1` [compound 52, 1-(2,6-dichlorophenyl)-4-((4-(5-ethylpyrimidin-4-yl)phenyl)amino)-1H-pyrazole-3-carboxamide], the concentration for half-maximal inhibition (IC50) in assay [1] is 0.01 to 0.1 µM; in assay [2], 0.1 to 1 µM; in assay [3] it was 0.1 to 1 µM; in assay [4], 0.1 to 1 µM.
As for `Cc1ncn(C)c1-c1ccc(Nc2cn(-c3c(Cl)cccc3Cl)nc2C(N)=O)cc1` [compound 53, 1-(2,6-dichlorophenyl)-4-((4-(1,4-dimethyl-1H-imidazol-5-yl)phenyl)amino)-1H-pyrazole-3-carboxamide], the IC50 in assay [1] lay in the range of 0.1 to 1 µM; in assay [2] it was 0.1 to 1 µM; in assay [3] it was 0.1 to 1 µM; in assay [4] it was 0.01 to 0.1 µM.
On to `N#Cc1cccnc1-c1ccc(Nc2cn(-c3c(Cl)cccc3Cl)nc2C(N)=O)cc1` [compound 59, 4-((4-(3-cyanopyridin-2-yl)phenyl)amino)-1-(2,6-dichlorophenyl)-1H-pyrazole-3-carboxamide], for which the 50% inhibitory concentration (IC50) in assay [1] lay within 0.1 to 1 µM; in assay [2], 0.1 to 1 µM; in assay [3] it was 0.1 to 1 µM; in assay [4] it was 0.01 to 0.1 µM.
